Measured values taken from PubChem BioAssay AID1745844 (Carcinogenic Potency Database (CPDB), 2022).
Values joined by “and” are separate entries in the source; they are usually repeats but may differ in a detail not shown here. Equal values may be shown once. Active and inactive are the calls of the source. The rule behind the calls is not given here.

Test system: rodent lifetime carcinogenesis bioassay, tumor incidence TD50
Assay: carcinogenic potency in animals, long-term in vivo studies, CPDB compilation (AID 1745844)
[1] = rat, strain Fischer 344, males, in feed, site: any site (literature study), lesion: several types, types named in the paper, dosed 78 weeks, study length 104 weeks

SMILES: O=C1OC2(c3ccccc31)c1cc(I)c(O)c(I)c1Oc1c2cc(I)c(O)c1I
- carcinogen call (mouse, strain Charles River CD1, females, in feed, site: any site (literature study), lesion: benign tumor, dosed 104 weeks, study length 104 weeks): negative (inactive)
- carcinogen call (mouse, strain Charles River CD1, females, in feed, site: any site (literature study), lesion: malignant tumor, dosed 104 weeks, study length 104 weeks): negative (inactive)
- carcinogen call (mouse, strain Charles River CD1, females, in feed, site: any site (literature study), lesion: several types, types named in the paper, dosed 104 weeks, study length 104 weeks): negative (inactive)
- TD50 (mouse, strain Charles River CD1, males, in feed, site: all sites, lesion: lymphocytic lymphoma, dosed 104 weeks, study length 104 weeks): 3140 mg/kg/day (inactive)
- TD50 (mouse, strain Charles River CD1, males, in feed, site: any site (literature study), lesion: benign tumor, dosed 104 weeks, study length 104 weeks): 25900 mg/kg/day (inactive)
- TD50 (mouse, strain Charles River CD1, males, in feed, site: any site (literature study), lesion: malignant tumor, dosed 104 weeks, study length 104 weeks): 87600 mg/kg/day (inactive)
- TD50 (mouse, strain Charles River CD1, males, in feed, site: any site (literature study), lesion: several types, types named in the paper, dosed 104 weeks, study length 104 weeks): 17000 mg/kg/day
- TD50 (rat, strain Osborne-Mendel, both sexes, by gavage, site: all sites, lesion: lymphosarcoma, dosed 85 weeks, study length 104 weeks): 122 mg/kg/day (inactive)
- carcinogen call (rat, strain Osborne-Mendel, both sexes, by gavage, site: any site (literature study), lesion: malignant tumor, dosed 85 weeks, study length 104 weeks): negative (inactive)
- carcinogen call (rat, strain Osborne-Mendel, both sexes, by gavage, site: liver, lesion: one or several types, types not named, dosed 85 weeks, study length 104 weeks): negative (inactive)
- TD50 (rat, strain Osborne-Mendel, both sexes, in feed, site: any site (literature study), lesion: malignant tumor, dosed 86 weeks, study length 104 weeks): 14100 mg/kg/day (inactive)
- TD50 (rat, strain Osborne-Mendel, both sexes, in feed, site: liver, lesion: hepatoma, dosed 86 weeks, study length 104 weeks): 84900 mg/kg/day (inactive)
- carcinogen call (rat, strain Osborne-Mendel, females, in feed, site: any site (literature study), lesion: several types, types named in the paper, dosed 104 weeks, study length 104 weeks): negative (inactive)
- TD50 (rat, strain Osborne-Mendel, males, in feed, site: any site (literature study), lesion: several types, types named in the paper, dosed 104 weeks, study length 104 weeks): 4810 mg/kg/day (inactive)
- carcinogen call (rat, strain Slc-Wistar, females, in feed, site: any site (literature study), lesion: several types, types named in the paper, dosed 52 weeks, study length 52 weeks): negative (inactive)
- carcinogen call (rat, strain Slc-Wistar, females, in feed, site: liver, lesion: one or several types, types not named, dosed 52 weeks, study length 52 weeks): negative (inactive)
- carcinogen call (rat, strain Slc-Wistar, males, in feed, site: any site (literature study), lesion: several types, types named in the paper, dosed 52 weeks, study length 52 weeks): negative (inactive)
- carcinogen call (rat, strain Slc-Wistar, males, in feed, site: liver, lesion: one or several types, types not named, dosed 52 weeks, study length 52 weeks): negative (inactive)
- carcinogen call (rat, strain Sprague-Dawley, females, in feed, site: any site (literature study), lesion: one or several types, types not named, dosed 52 weeks, study length 52 weeks): negative (inactive)
- carcinogen call (rat, strain Sprague-Dawley, females, in feed, site: liver, lesion: one or several types, types not named, dosed 52 weeks, study length 52 weeks): negative (inactive)

SMILES: CO[C@@H]1[C@@H](O[C@@H]2O[C@H](C)[C@@H](O[C@H]3C[C@@](C)(O)[C@@H](OC(=O)CC(C)C)[C@H](C)O3)[C@H](N(C)C)[C@H]2O)[C@@H](CC=O)C[C@@H](C)[C@@H](O)/C=C/C=C/C[C@@H](C)OC(=O)C[C@H]1OC(C)=O
- carcinogen call (rat, strain F344/DuCrj, females, in feed, site: liver, lesion: hepatocellular adenoma, dosed 104 weeks, study length 106 weeks): negative (inactive)
- carcinogen call (rat, strain F344/DuCrj, females, in feed, site: liver, lesion: one or several types, types not named, dosed 52 weeks, study length 52 weeks): negative (inactive)
- carcinogen call (rat, strain F344/DuCrj, males, in feed, site: liver, lesion: hepatocellular adenoma, dosed 104 weeks, study length 106 weeks): negative (inactive)
- TD50 (rat, strain F344/DuCrj, males, in feed, site: liver, lesion: hepatocellular carcinoma, dosed 104 weeks, study length 106 weeks): 51300 mg/kg/day (inactive)
- carcinogen call (rat, strain F344/DuCrj, males, in feed, site: liver, lesion: one or several types, types not named, dosed 52 weeks, study length 52 weeks): negative (inactive)

SMILES: CC(C)C/C=N/N(C)C=O
- TD50 (mouse, strain Swiss albino, females, by gavage, site: gall bladder, lesion: adenocarcinoma, dosed 53 weeks, study length 127 weeks): 151 mg/kg/day
- TD50 (mouse, strain Swiss albino, females, by gavage, site: gall bladder, lesion: adenoma, dosed 53 weeks, study length 127 weeks): 36.5 mg/kg/day
- TD50 (mouse, strain Swiss albino, females, by gavage, site: gall bladder, lesion: several types, types named in the paper, dosed 53 weeks, study length 127 weeks): 28.9 mg/kg/day
- TD50 (mouse, strain Swiss albino, females, by gavage, site: liver, lesion: hepatocellular carcinoma, dosed 53 weeks, study length 127 weeks): 74.6 mg/kg/day
- TD50 (mouse, strain Swiss albino, females, by gavage, site: liver, lesion: hepatoma, dosed 53 weeks, study length 127 weeks): 9.27 mg/kg/day
- TD50 (mouse, strain Swiss albino, females, by gavage, site: liver, lesion: several types, types named in the paper, dosed 53 weeks, study length 127 weeks): 7.9 mg/kg/day
- TD50 (mouse, strain Swiss albino, females, by gavage, site: lung, lesion: adenocarcinoma, dosed 53 weeks, study length 127 weeks): 8.7 mg/kg/day
- TD50 (mouse, strain Swiss albino, females, by gavage, site: lung, lesion: adenoma, dosed 53 weeks, study length 127 weeks): 2.39 mg/kg/day
- TD50 (mouse, strain Swiss albino, females, by gavage, site: lung, lesion: several types, types named in the paper, dosed 53 weeks, study length 127 weeks): 1.99 mg/kg/day
- TD50 (mouse, strain Swiss albino, males, by gavage, site: gall bladder, lesion: adenoma, dosed 53 weeks, study length 119 weeks): 46.1 mg/kg/day
- TD50 (mouse, strain Swiss albino, males, by gavage, site: liver, lesion: hepatocellular carcinoma, dosed 53 weeks, study length 119 weeks): 34.2 mg/kg/day
- TD50 (mouse, strain Swiss albino, males, by gavage, site: liver, lesion: hepatoma, dosed 53 weeks, study length 119 weeks): 8 mg/kg/day
- TD50 (mouse, strain Swiss albino, males, by gavage, site: liver, lesion: several types, types named in the paper, dosed 53 weeks, study length 119 weeks): 5.97 mg/kg/day
- TD50 (mouse, strain Swiss albino, males, by gavage, site: lung, lesion: adenocarcinoma, dosed 53 weeks, study length 119 weeks): 10.7 mg/kg/day
- TD50 (mouse, strain Swiss albino, males, by gavage, site: lung, lesion: adenoma, dosed 53 weeks, study length 119 weeks): 3.3 mg/kg/day
- TD50 (mouse, strain Swiss albino, males, by gavage, site: lung, lesion: several types, types named in the paper, dosed 53 weeks, study length 119 weeks): 2.53 mg/kg/day
- TD50 (mouse, strain Swiss albino, males, by gavage, site: preputial gland, lesion: several types, types named in the paper, dosed 53 weeks, study length 119 weeks): 4.36 mg/kg/day
- TD50 (mouse, strain Swiss albino, males, by gavage, site: preputial gland, lesion: squamous-cell carcinoma, dosed 53 weeks, study length 119 weeks): 5.59 mg/kg/day
- TD50 (mouse, strain Swiss albino, males, by gavage, site: preputial gland, lesion: squamous-cell papilloma, dosed 53 weeks, study length 119 weeks): 34.2 mg/kg/day

SMILES: CCC[CH2][Sn]([CH2]CCC)([O]C(C)=O)[O]C(C)=O
- TD50 (mouse, strain B6C3F1, females, in feed, site: any site (literature study), lesion: several types, types named in the paper, dosed 78 weeks, study length 92 weeks): 29.6 mg/kg/day
- TD50 (mouse, strain B6C3F1, females, in feed, site: liver, lesion: hepatocellular adenoma + hepatocellular carcinoma + neoplastic nodule, dosed 78 weeks, study length 92 weeks): 31.6 mg/kg/day
- TD50 (mouse, strain B6C3F1, females, in feed, site: liver, lesion: hepatocellular adenoma, dosed 78 weeks, study length 92 weeks): 31.6 mg/kg/day (inactive)
- TD50 (mouse, strain B6C3F1, males, in feed, site: any site (literature study), lesion: several types, types named in the paper, dosed 78 weeks, study length 92 weeks): 178 mg/kg/day (inactive)
- TD50 (mouse, strain B6C3F1, males, in feed, site: liver, lesion: hepatocellular adenoma + hepatocellular carcinoma + neoplastic nodule, dosed 78 weeks, study length 92 weeks): 29.2 mg/kg/day
- TD50 (rat, strain Fischer 344, females, in feed, site: liver, lesion: hepatocellular adenoma + hepatocellular carcinoma + neoplastic nodule, dosed 78 weeks, study length 104 weeks): 94.4 mg/kg/day
- carcinogen call [1]: negative (inactive)

SMILES: CC(=O)Nc1nc(-c2ccc([N+](=O)[O-])o2)cs1
- TD50 (hamster, strain Syrian Golden, males, in feed, site: forestomach, lesion: squamous-cell papilloma, dosed 48 weeks, study length 70 weeks): 68.1 mg/kg/day
- TD50 (hamster, strain Syrian Golden, males, in feed, site: urinary bladder, lesion: several types, types named in the paper, dosed 48 weeks, study length 70 weeks): 8.91 mg/kg/day
- TD50 (hamster, strain Syrian Golden, males, in feed, site: urinary bladder, lesion: squamous-cell carcinoma, dosed 48 weeks, study length 70 weeks): 60.2 mg/kg/day
- TD50 (rat, strain Sprague-Dawley, females, in feed, site: kidney/pelvis, lesion: transitional-cell carcinoma, dosed 46 weeks, study length 66 weeks): 316 mg/kg/day and 660 mg/kg/day
- TD50 (rat, strain Sprague-Dawley, females, in feed, site: mammary gland, lesion: adenocarcinoma, dosed 46 weeks, study length 66 weeks): 36.2 mg/kg/day
- TD50 (rat, strain Sprague-Dawley, females, in feed, site: mammary gland, lesion: fibroadenoma, dosed 46 weeks, study length 66 weeks): 56.9 mg/kg/day and 25 mg/kg/day and 30.2 mg/kg/day
- TD50 (rat, strain Sprague-Dawley, females, in feed, site: mammary tissue, wider than the gland, lesion: several types, types named in the paper, dosed 46 weeks, study length 66 weeks): 10.5 mg/kg/day

SMILES: O=NN1CCNCC1
- TD50 (rat, strain MRC, females, in drinking water, site: any site (literature study), lesion: several types, types named in the paper, dosed 60 weeks, study length 127 weeks): 5.51 mg/kg/day
- TD50 (rat, strain MRC, males, in drinking water, site: any site (literature study), lesion: several types, types named in the paper, dosed 60 weeks, study length 127 weeks): 21.6 mg/kg/day
- TD50 (rat, strain MRC, males, in drinking water, site: liver, lesion: hepatoma, dosed 60 weeks, study length 127 weeks): 6.52 mg/kg/day

SMILES: N[C@@H](Cc1c[nH]c2ccccc12)C(=O)O
- carcinogen call (mouse, strain B6C3F1, females, in feed, site: any site (literature study), lesion: several types, types named in the paper, dosed 78 weeks, study length 104 weeks): negative (inactive)
- TD50 (mouse, strain B6C3F1, females, in feed, site: liver, lesion: hepatocellular adenoma + hepatocellular carcinoma + neoplastic nodule, dosed 78 weeks, study length 104 weeks): 30200 mg/kg/day
- TD50 (mouse, strain B6C3F1, males, in feed, site: any site (literature study), lesion: several types, types named in the paper, dosed 78 weeks, study length 104 weeks): 1470 mg/kg/day (inactive)
- carcinogen call (rat, strain Fischer 344, females, in feed, site: any site (literature study), lesion: several types, types named in the paper, dosed 78 weeks, study length 104 weeks): negative (inactive)
- carcinogen call [1]: negative (inactive)
- carcinogen call (rat, strain Fischer, males, in feed, site: urinary bladder, lesion: several types, types named in the paper, dosed 100 weeks, study length 104 weeks): negative (inactive)
